Laboratory results published in publication PMC8573827, “Zinc protoporphyrin binding to telomerase complexes and inhibition of telomerase activity” (Pharmacology Research & Perspectives, 2021).
Where two headings read alike, the source gives them in different places.

What was measured:
Huh7 cells = assay: MTT cell proliferation/viability assay, Huh7; type: cell-based, human; conditions: Huh7 vs U2OS, 72 h
Protocol: MPPs were tested for effects on cell proliferation and viability using MTT (3‐(4,5‐dimethylthiazol‐2‐yl)‐2,5‐diphenyltetrazolium bromide) dye conversion assay (Cell Titer 96, Promega) as we described[22] with some modifications. Cells were plated into 96 well plates and allowed to attach overnight. MPPs were added to the cultures and then incubated for the times indicated. At assay time, MTT reagent was added and absorbance measured at 570 nm. Controls included buffer blanks containing MPP because of background absorbances reported for MPPs by us[22] and others.[23] The formula used for determination of viable cells relative to controls was: %viablecells=(abssample‐absblank)/(absconrtrol‐absblank)×100

[1] = test system: TERT, β-catenin, and cyclin D1 expression; assay: Western blot of proliferative proteins in Huh7 cells; type: cell-based, human; conditions: Huh7, 48 h
Protocol: For SDS ‐PAGE, cellular lysates, and protein preparations such as IP were dissolved in Laemmli buffer, boiled for 1 min and separated on denaturing SDS gels as described.[28] After electrophoretic transfer of separated proteins to nitrocellulose sheets, western blot immunoassays employed enhanced chemiluminescence for signal detection (ECL^TM Prime, Amersham).[28]

Taq DNA polymerase = target: T1, Taq DNA polymerase (Thermus aquaticus, UniProt P19821); assay: Taq polymerase inhibition test, MPP added after the telomerase extension step of TRAP; type: biochemical
T1 construct: purchased Perkin‐Elmer Cetus, Norwalk, CT
T1 sequence (P19821 whole entry): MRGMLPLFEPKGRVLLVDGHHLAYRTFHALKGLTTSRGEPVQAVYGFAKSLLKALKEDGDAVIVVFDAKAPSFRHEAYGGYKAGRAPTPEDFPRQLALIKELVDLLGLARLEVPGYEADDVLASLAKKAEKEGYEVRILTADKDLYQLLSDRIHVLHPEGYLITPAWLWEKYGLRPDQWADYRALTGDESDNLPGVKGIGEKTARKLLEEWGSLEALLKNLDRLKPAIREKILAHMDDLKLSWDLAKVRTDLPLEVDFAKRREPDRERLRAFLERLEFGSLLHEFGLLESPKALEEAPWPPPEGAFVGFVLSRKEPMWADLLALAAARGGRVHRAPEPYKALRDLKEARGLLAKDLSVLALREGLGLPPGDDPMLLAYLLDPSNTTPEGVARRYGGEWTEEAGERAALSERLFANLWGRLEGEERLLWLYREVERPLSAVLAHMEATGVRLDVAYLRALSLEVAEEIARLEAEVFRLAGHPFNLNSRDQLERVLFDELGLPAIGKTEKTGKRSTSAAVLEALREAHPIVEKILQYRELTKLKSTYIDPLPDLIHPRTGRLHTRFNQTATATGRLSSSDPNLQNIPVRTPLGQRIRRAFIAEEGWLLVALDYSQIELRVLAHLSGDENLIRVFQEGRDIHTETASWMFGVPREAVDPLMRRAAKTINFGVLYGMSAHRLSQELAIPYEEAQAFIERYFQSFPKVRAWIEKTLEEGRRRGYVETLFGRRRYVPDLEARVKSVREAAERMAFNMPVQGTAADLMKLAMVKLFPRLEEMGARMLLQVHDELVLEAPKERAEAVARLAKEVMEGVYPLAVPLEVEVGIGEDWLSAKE
Protocol: (§1) For TRAP assay, a Quantitative Telomerase Detection Kit (US Biomax, Inc) was used to assay cellular lysates or TERT immunoprecipitates (IP) according to the manufacturer's directions. Relative telomerase activity was derived from a standard curve of reference samples and data were analyzed using relative fluorescence units as compared to controls. In some cases, telomerase reaction products were visualized and quantified with TRAPeze system (EMD/Millipore). After separation of the DNA products using 10% non‐denaturing PAGE and SYBR fluorescence labeling [1x SYBR safe DNA gel stain (Invitrogen)], gel bands were imaged with iBright 1500 (Invitrogen). The intensity of the sample's TRAP ladder and internal control was first measured using GelAnalyzer [GelAnalyzer 19.1 (www.gelanalyzer.com )] as recommended. Then, the relative telomerase activity was determined by the ratio of the intensity of the sample's TRAP ladder (telomerase products, TP) to that of the internal control (IC) band.
Because of concerns that some quadruplex ligands inhibit Taq DNA polymerase in addition to telomerase, we assayed MPP inhibition at both steps of the TRAP procedure with a strategy similar to that of others.[36] Using equivalent extracts but separate assays, MPP was either included in the telomerase RT extension step or the extension step was conducted without MPP and then MPP added only for the amplification steps with Taq DNA polymerase. To avoid further potential errors introduced by Real‐time quantification, TRAP products were labeled with SYBR green, visualized on denaturing gels, and each lane was quantified by density measurements as described in the Methods. The latter step also ruled out the possibility that decreases in activity were artifactual due to fluorescence signal quenching by some MPPs.[37] […] All three MPPs had minimal effects on Taq polymerase […] and the slight inhibition of Taq polymerase seen for ZnPP was not directly concentration‐dependent.
Enzymatic extracts were prepared from semi-confluent Huh7 cells and aliquots were assayed in triplicate using TRAP assay. CoPP was added to RT-PCR reactions either before or after the RT telomere elongation step to test whether it inhibited Taq polymerase. Visualization of amplified telomeric products was on 12% denaturing gels using SYBR fluorescence labelling (upper panels). Quantification was with densitometry as described in Methods and plot shown (lower panel). Plotted points represent the mean +/- SD with n =3. (IC)= internal Taq polymerase control.

telomerase [2] = target: T2, telomerase (Homo sapiens, UniProt O14746); assay: TRAP (TRAPeze) telomerase activity assay in Huh7 cellular lysates/enzymatic extracts; type: biochemical; design: Enzymatic extracts were prepared from semi‐confluent phase Huh7 cells and aliquots were assayed in triplicate using TRAP assay; endogenous in cells; host or cells: Huh7
Protocol: (§2) Telomerase reverse transcriptase (TERT) enzymatic activity was determined using Telomeric Repeat Amplification Protocol (TRAP) with Real‐time quantification as described previously,[25] or measured directly using α‐^32P‐dGTP incorporation as described[26] with modifications as below.
as §1
(§3) The EC50 was the extracellular concentration of MPP inhibitor calculated to result in 50% reduction of cellular telomerase activity after incubation in whole cells. Similarly, IC50 was the concentration of MPP inhibitor necessary to inhibit 50% of telomerase enzyme activity in vitro in cellular lysates. Both were calculated using GraphPad as directed and verified graphically on plots of enzyme activity vs inhibitor concentration.
Target sequence in this assay (O14746 whole entry): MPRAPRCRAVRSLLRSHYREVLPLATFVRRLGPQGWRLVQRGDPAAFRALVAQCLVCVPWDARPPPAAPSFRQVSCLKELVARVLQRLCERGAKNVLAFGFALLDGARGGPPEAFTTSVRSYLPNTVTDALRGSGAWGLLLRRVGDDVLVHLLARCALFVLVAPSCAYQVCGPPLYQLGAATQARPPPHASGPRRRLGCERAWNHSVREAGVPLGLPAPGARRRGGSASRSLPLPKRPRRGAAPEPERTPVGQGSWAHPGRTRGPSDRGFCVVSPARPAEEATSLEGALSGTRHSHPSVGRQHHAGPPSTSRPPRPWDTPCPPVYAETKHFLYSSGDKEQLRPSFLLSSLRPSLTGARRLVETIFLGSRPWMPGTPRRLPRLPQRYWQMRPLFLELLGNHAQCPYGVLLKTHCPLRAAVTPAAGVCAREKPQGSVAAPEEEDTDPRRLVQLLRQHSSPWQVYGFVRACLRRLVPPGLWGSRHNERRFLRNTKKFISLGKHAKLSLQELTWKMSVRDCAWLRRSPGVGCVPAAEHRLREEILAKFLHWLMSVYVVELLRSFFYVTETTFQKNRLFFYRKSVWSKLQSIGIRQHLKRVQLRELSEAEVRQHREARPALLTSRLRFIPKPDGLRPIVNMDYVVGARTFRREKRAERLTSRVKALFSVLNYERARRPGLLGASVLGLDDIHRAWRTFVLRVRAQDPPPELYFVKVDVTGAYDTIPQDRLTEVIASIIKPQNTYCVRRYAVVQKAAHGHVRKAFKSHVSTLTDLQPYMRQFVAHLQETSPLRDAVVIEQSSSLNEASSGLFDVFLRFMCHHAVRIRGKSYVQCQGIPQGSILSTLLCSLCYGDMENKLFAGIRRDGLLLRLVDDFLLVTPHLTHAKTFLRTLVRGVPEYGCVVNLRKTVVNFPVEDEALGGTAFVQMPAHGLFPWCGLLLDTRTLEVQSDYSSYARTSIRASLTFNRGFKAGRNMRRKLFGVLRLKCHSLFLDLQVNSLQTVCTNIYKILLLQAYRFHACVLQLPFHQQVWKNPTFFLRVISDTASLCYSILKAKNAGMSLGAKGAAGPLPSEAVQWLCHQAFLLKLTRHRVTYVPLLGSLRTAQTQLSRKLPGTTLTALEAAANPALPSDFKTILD
Target sequence in this assay (O60832 whole entry partner): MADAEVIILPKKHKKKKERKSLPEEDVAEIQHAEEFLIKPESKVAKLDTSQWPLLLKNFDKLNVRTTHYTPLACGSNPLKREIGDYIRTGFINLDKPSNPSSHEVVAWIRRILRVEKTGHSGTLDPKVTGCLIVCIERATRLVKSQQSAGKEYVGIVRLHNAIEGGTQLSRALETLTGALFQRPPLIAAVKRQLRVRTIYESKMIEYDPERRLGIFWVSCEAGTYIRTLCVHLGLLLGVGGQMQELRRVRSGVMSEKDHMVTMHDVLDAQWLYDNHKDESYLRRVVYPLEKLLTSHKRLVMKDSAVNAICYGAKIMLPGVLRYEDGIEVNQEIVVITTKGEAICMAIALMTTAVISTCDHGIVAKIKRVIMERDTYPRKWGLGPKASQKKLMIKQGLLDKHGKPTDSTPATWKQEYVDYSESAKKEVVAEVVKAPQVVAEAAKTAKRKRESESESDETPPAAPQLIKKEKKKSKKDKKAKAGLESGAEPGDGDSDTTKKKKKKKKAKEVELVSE
Target sequence in this assay (Q9NPE3 whole entry partner): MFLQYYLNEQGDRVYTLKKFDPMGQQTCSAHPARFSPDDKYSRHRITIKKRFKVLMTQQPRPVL
Target sequence in this assay (Q9NX24 whole entry partner): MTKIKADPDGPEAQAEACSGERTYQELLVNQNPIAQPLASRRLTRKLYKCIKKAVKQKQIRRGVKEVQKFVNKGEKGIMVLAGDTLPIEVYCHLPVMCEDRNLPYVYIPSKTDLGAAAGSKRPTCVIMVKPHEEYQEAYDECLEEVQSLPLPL
Target sequence in this assay (Q9NY12 whole entry partner): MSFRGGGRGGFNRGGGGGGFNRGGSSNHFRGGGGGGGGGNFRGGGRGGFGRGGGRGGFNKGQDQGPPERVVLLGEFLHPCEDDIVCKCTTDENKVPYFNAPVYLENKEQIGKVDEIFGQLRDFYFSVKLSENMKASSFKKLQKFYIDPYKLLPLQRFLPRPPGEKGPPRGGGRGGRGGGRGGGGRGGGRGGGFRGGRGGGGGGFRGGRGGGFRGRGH
Target sequence in this assay (Q9BUR4 whole entry partner): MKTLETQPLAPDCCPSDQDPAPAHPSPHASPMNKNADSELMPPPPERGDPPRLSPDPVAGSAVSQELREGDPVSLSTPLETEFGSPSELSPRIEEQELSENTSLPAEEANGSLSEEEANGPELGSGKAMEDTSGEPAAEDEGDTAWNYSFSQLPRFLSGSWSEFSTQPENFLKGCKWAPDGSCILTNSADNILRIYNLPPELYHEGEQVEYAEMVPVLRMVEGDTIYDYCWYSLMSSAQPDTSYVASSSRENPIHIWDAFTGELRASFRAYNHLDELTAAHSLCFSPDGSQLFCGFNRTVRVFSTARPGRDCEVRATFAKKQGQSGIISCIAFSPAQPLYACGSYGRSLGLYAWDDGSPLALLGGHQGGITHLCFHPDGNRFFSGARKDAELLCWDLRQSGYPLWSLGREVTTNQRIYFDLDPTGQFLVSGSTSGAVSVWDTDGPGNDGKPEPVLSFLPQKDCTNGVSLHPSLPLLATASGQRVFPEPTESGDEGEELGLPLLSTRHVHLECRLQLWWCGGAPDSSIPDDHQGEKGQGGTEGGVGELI

telomerase [3] = target: T2, telomerase; assay: Direct α-32P-dGTP telomerase extension assay, IP eluates of HEK-293T cells overexpressing TERT, TERC and dyskerin; type: biochemical; design: purchased Abbexa Ltd (UK) Abx069991; host or cells: HEK-293T cells overexpressing TERT, TERC and dyskerin; conditions: Table 2b; mean of 2–4 experiments
Protocol: For direct telomerase activity assay, a modified procedure of Tomlinson et al[26] was used. Briefly, HEK‐293T cell pellet from 10^7 cells overexpressing TERT, TERC, and dyskerin was obtained from Abbexa Ltd (UK. Abx069991). The whole‐cell lysate was produced using 1ml buffer A [20 mM HEPES‐KOH buffer (pH 8), 300 mM KCl, 2 mM MgCl2, 0.1% v/v Triton X‐100, 10% v/v glycerol]. Immunoprecipitation of telomerase was performed with anti‐hTERT polyclonal sheep antibody (abx120550, Abbexa, U.K.). The telomerase was finally eluted with hTERT peptide (abx069990, Abbexa, U.K.). 10µl of eluates were mixed with different concentrations of MPP and incubated on ice for 2 h. Then the pellet‐MPP complex was added to the extension reaction mixture composed of 1x telomerase buffer, 300 mM KCl, 1 µM Bio‐L‐18GGG, 1 mM dATP, 1 mM dTTP, 10 µM dGTP, 20 µCi α‐^32P‐dGTP, 10 mM DTT, 5’ biotinylated DNA substrate (5’‐CTAGACCTGTCATCA(TTAGGG)3‐3’) and 10% glycerol. The reaction was conducted at 37 °C for 2 h. The purification of telomerase extension products employed Dynabeads M‐280 streptavidin. Five microliters of purified products were loaded on 6% sequencing gel (TBE‐UREA denaturing gel) with Model S2 Sequencing Gel Electrophoresis Apparatus (LabRepCo, Horsham, PA). […] This screen was then scanned using a STORM phosphorimager (Molecular Dynamics), and bands were quantified using GelAnalyzer as described above. […]
Target sequence in this assay (O14746 whole entry): as the sequence (O14746 whole entry) above
Target sequence in this assay (O60832 whole entry partner): as the sequence (O60832 whole entry partner) above
Target sequence in this assay (Q9NPE3 whole entry partner): as the sequence (Q9NPE3 whole entry partner) above
Target sequence in this assay (Q9NX24 whole entry partner): as the sequence (Q9NX24 whole entry partner) above
Target sequence in this assay (Q9NY12 whole entry partner): as the sequence (Q9NY12 whole entry partner) above

[4] = target: T3, telomerase activity in Hek293 cells (Homo sapiens, UniProt O14746); assay: Telomerase activity by TRAP after incubation of intact Hek293 cells with MPP; type: cell-based
T3 construct: Log phase Huh7, Hek293 and Huh5.15 HCV replicon cells; endogenous in cells; host or cells: Hek293 (wild type)
T3 sequence (O14746 whole entry): as the sequence (O14746 whole entry) above
T3 sequence (O60832 whole entry partner): as the sequence (O60832 whole entry partner) above
T3 sequence (Q9NPE3 whole entry partner): as the sequence (Q9NPE3 whole entry partner) above
T3 sequence (Q9NX24 whole entry partner): as the sequence (Q9NX24 whole entry partner) above
T3 sequence (Q9NY12 whole entry partner): as the sequence (Q9NY12 whole entry partner) above
T3 sequence (Q9BUR4 whole entry partner): as the sequence (Q9BUR4 whole entry partner) above
Protocol: as §2, §1, §3

[5] = target: T4, telomerase activity in Huh7 cells (Homo sapiens, UniProt O14746); assay: Telomerase activity by TRAP after incubation of intact Huh7 cells with MPP; type: cell-based
T4 construct: Enzymatic extracts were prepared from semi‐confluent phase Huh7 cells and aliquots were assayed in triplicate using TRAP assay; endogenous in cells; host or cells: Huh7
T4 sequence (O14746 whole entry): as the sequence (O14746 whole entry) above
T4 sequence (O60832 whole entry partner): as the sequence (O60832 whole entry partner) above
T4 sequence (Q9NPE3 whole entry partner): as the sequence (Q9NPE3 whole entry partner) above
T4 sequence (Q9NX24 whole entry partner): as the sequence (Q9NX24 whole entry partner) above
T4 sequence (Q9NY12 whole entry partner): as the sequence (Q9NY12 whole entry partner) above
T4 sequence (Q9BUR4 whole entry partner): as the sequence (Q9BUR4 whole entry partner) above
Protocol: as §2, §1, §3

[6] = test system: high molecular weight complexes containing telomerase; assay: Fluorescent labelling of cellular lysate complexes on non-denaturing 0.8% agarose gels; type: binding, human; conditions: Huh7 lysates, fluorescence visualization
Protocol: 0.8% Agarose gels were run in Tris‐Borate‐EDTA buffer using standard slab gels as described for high molecular weight complexes.[27] Cell lysates were produced by lysing Hek293 and Huh7 cells in NP40 buffer (25 mM HEPES‐KOH, 150 mM KCl, 1.5mM MgCl2, 10% glycerol, 0.5% NP40, 5 mM 2ME, pH 7.5 supplemented with protease inhibitors) for 30 min on ice. Extracts were clarified by centrifugation for 16 000 g for 10 min. The protein concentration was determined by Bradford assay. The indicated amounts of proteins were treated with different amounts of ZnPP for 2 h on ice, and then separated on 0.8% Agarose gels prepared with 0.5xTris‐Borate‐EDTA (TBE) buffer. The gels were run at 100 V for 2 h at 4 °C in 0.5x TBE buffer. […] No antibody and normal rabbit IgG (sc‐2027, Santa Cruz Biotechnology) were included as controls. The IP products were treated with ZnPP and electrophoresed as above. Free ZnPP and ZnPP bound to large complexes were visualized using a wide‐wavelength UV lightbox or with red fluorescence using excitation (EX) 608–632 nm and emission (EM) 675–720 nm. Thyroglobulin (670 kD), a heavy MW marker, was run in parallel lanes and visualized with Coomassie Blue staining or fluorescence to size the complexes. In some cases, cell lysates or IP were incubated with RNase A (Life Technologies, NY); or DNase 1 (Qiagen, CA) 100 µg/ml for 1 h at 4 °C prior to electrophoresis.

[7] = TRAP, MPP added for the amplification steps only
[8] = Table 2a, mean of 2–4 experiments, 6 inhibitor concentrations 0–20 µM, read-out: IC50, cellular lysates [Trapeze]
[9] = individual experiment, Figure 3B-D, gel densitometry, read-out: IC50 of telomerase activity, TRAP in Huh7 extracts
[10] = Figure 3A middle panel, 48 h, read-out: EC50 of telomerase activity in cultured Hek293 cells
[11] = Table 2d, mean of 2–4 experiments, 48 h incubation, read-out: EC50, intact Hek293 cells [TRAP]
[12] = Figure 3A upper panel, 48 h, read-out: EC50 of telomerase activity in cultured Huh7 cells
[13] = Table 2c, mean of 2–4 experiments, 48 h incubation, read-out: EC50, intact Huh7 cells [TRAP]

| Structure (SMILES) | Effect on proliferation, telomerase-expressing vs telomerase negative line (Huh7 cells) | Effect on expression of TERT, β-catenin and cyclin D1 (western blot) [1] | Effect on Taq polymerase (Taq DNA polymerase; [7]) | Effect on Taq polymerase (Taq DNA polymerase; concentrations of 5-10 µM, Figure S2) | IC50 (telomerase [2]; [8]) [µM] | IC50 (telomerase [2]; [9]) [µM] | IC50 (telomerase [3]) [µM] | EC50 [4, 10] [µM] | EC50 [4, 11] [µM] | EC50 [5, 12] [µM] | EC50 [5, 13] [µM] | Labelling/binding of cellular complexes on agarose gels [6] |
| --- | --- | --- | --- | --- | --- | --- | --- | --- | --- | --- | --- | --- |
| C/C(=C\C(=O)Nc1ccccc1C(=O)O)c1ccc2ccccc2c1 [BIBR, reference compound] | greater propensity to decrease proliferation | – | – | – | – | – | – | – | – | – | – | – |
| C=CC1=C(C)c2cc3[n-]c(cc4nc(cc5[n-]c(cc1n2)c(C)c5CCC(=O)[O-])C(CCC(=O)[O-])=C4C)c(C)c3C=C.[Co+2].[H+].[H+] [CoPP, cobalt protoporphyrin] | – | failed to significantly alter | clearly inhibited Taq polymerase | potent antagonist | – | – | – | – | – | – | – | – |
| C=CC1=C(C)c2cc3[n-]c(cc4[n-]c(cc5nc(cc1n2)C(C)=C5C=C)c(C)c4CCC(=O)O)c(CCC(=O)O)c3C.[Fe+2] [FePP, iron protoporphyrin (heme)] | – | failed to significantly alter | minimal inhibition | – | > 20 | > 10 | 18.3 | > 10 | > 20 | > 10 | > 20 | – |
| C=Cc1c2[n-]c(c1C)/C=c1\[n-]/c(c(C)c1C=C)=C\c1[n-]c(c(CCC(=O)O)c1C)/C=c1\[n-]c(c(C)c1CCC(=O)O)=C2.[Sn+4] [SnPP, tin protoporphyrin] | – | failed to significantly alter | minimal inhibition | – | 12 | > 10 | > 20 | > 10 | > 20 | > 10 | 10.8 | did not label a discernable cellular complex |
